Reference: ChEMBL document CHEMBL3044635, “Effect of propiconazole and difenoconazole on the control of anthracnose of chilli fruits caused by Colletotrichum capsici” (Crop Prot, 2006)
Converted amounts (≈) assume the structure as drawn.

Assays:
[1] = test system: Colletotrichum truncatum; test: Fungicidal activity against Colletotrichum capsici assessed as reduction of polygalacturonase trans-eliminase production at 1 ug/ml incubated for 10 days measured up to 120 min by Ostwald-Fenske viscometric analysis (reference value: 40.8%); type: functional; set-up: scale not given: the % may be the effect or the level left
[2] = test system: Colletotrichum truncatum; test: Fungicidal activity against Colletotrichum capsici assessed as sporulation at 25 ug/ml incubated 16 hr photoperiod for 20 days by haemocytometer (reference value: 0.081 x 10^6 ml'-1); type: functional
[3] = test system: Colletotrichum truncatum; test: Fungicidal activity against Colletotrichum capsici assessed as spore germination at 25 ug/ml after 48 to 96 hr (reference value: 70.2 CFU); type: functional
[4] = test system: Colletotrichum truncatum; test: Fungicidal activity against Colletotrichum capsici assessed as spore germination at 5 ug/ml after 48 to 96 hr (reference value: 70.2 CFU); type: functional
[5] = test system: Colletotrichum truncatum; test: Fungicidal activity against Colletotrichum capsici assessed as spore germination at 0.5 ug/ml after 48 to 96 hr (reference value: 70.2 CFU); type: functional
[6] = test system: Colletotrichum truncatum; test: Fungicidal activity against Colletotrichum capsici assessed as mycelial biomass at 10 ug/ml incubated 16 hr photoperiod for 20 days (reference value: 675 mg); type: functional
[7] = test system: Colletotrichum truncatum; test: Fungicidal activity against Colletotrichum capsici assessed as mycelial biomass at 5 ug/ml incubated 16 hr photoperiod for 20 days (reference value: 675 mg); type: functional
[8] = test system: Colletotrichum truncatum; test: Fungicidal activity against Colletotrichum capsici assessed as linear growth at 1 ug/ml incubated 16 hr photoperiod for 20 days (reference value: 90 mm); type: functional
[9] = test system: Colletotrichum truncatum; test: Fungicidal activity against Colletotrichum capsici assessed as linear growth at 0.1 ug/ml incubated 16 hr photoperiod for 20 days (reference value: 90 mm); type: functional
[10] = test system: Colletotrichum truncatum; test: Fungicidal activity against Colletotrichum capsici infected chilli plant assessed as fruit mass measured per pot at 0.025% applied as spray on day 10 post inoculation and twice every 20 days measured on day 155 post sowing in green house conditions (reference value: 85.3 to 94.5 g); type: functional
[11] = test system: Colletotrichum truncatum; test: Fungicidal activity against Colletotrichum capsici infected chilli plant assessed as percent disease index at 0.05% applied as spray on day 10 post inoculation and twice every 20 days measured on day 155 post sowing in green house conditions (reference value: 62.5 to 68.6%); type: functional
[12] = test system: Capsicum annuum; test: Phytotoxicity in Capsicum annuum (pepper) at 0.05% applied as spray; type: organism-based; settings: in vivo, other
[13] = test system: Puccinia allii; test: Fungicidal activity against Puccinia allii assessed as inhibition of spore germination; type: functional
[14] = test system: Colletotrichum truncatum; test: Fungicidal activity against Colletotrichum capsici assessed as spore germination at 5 ug/ml after 48 to 96 hr relative to control; type: functional
[15] = test system: Colletotrichum truncatum; test: Fungicidal activity against Colletotrichum capsici infected chilli plant assessed as fruit length at 0.1% applied as spray on day 10 post inoculation and twice every 20 days measured on day 155 post sowing in green house conditions (reference value: 6.8 to 7 cm); type: functional
[16] = test system: Colletotrichum truncatum; test: Fungicidal activity against Colletotrichum capsici infected chilli plant assessed as fruit mass measured per pot at 0.1% applied as spray on day 10 post inoculation and twice every 20 days measured on day 155 post sowing in green house conditions (reference value: 85.3 to 94.5 g); type: functional
[17] = test system: Colletotrichum truncatum; test: Fungicidal activity against Colletotrichum capsici infected chilli plant assessed as percent disease index at 0.1% applied as spray on day 10 post inoculation and twice every 20 days measured on day 155 post sowing in green house conditions (reference value: 62.5 to 68.6%); type: functional
[18] = test system: Colletotrichum truncatum; test: Fungicidal activity against Colletotrichum capsici infected chilli plant assessed as fruit length measured per plot at 0.1% applied as spray on day 10 post inoculation and twice every 20 days measured on day 155 post sowing in field conditions (reference value: 8 to 8.7 cm); type: functional
[19] = test system: Colletotrichum truncatum; test: Fungicidal activity against Colletotrichum capsici infected chilli plant assessed as fruit yield measured per plot at 0.1% applied as spray on day 10 post inoculation and twice every 20 days measured on day 155 post sowing in field conditions (reference value: 8.25 to 9.3 kg); type: functional
[20] = test system: Colletotrichum truncatum; test: Fungicidal activity against Colletotrichum capsici infected chilli plant assessed as percent disease index at 0.1% applied as spray on day 10 post inoculation and twice every 20 days measured on day 155 post sowing in field conditions (reference value: 51 to 56.5%); type: functional

## CC1COC(Cn2cncn2)(c2ccc(Oc3ccc(Cl)cc3)cc2Cl)O1 (stereo not given) [DIFENOCONAZOLE]
[1]
  Activity: 12.5%
[2]
  Activity: 0 ×10⁶ /ml
[3]
  CFU: 0
[4]
  CFU: 4.1
[5]
  CFU: 22.4
[6]
  Activity: 47 mg
[7]
  Activity: 118 mg
[8]
  Activity: 39.3 mm
[9]
  Activity: 73.5 mm
[10]
  Crop_yield: 100.6 g
[11]
  PDI: 22.2%
[12]
  Activity: Non-toxic

## CCCC1COC(Cn2cncn2)(c2ccc(Cl)cc2Cl)O1 (stereo not given) [PROPICONAZOLE]
[1]
  Activity: 8.5%
[13]
  MIC: 50 µg/mL (≈ 146 µM)
[2]
  Activity: 0 ×10⁶ /ml
[3]
  CFU: 0
[5]
  CFU: 15.5
[14]
  Activity: 0%
[6]
  Activity: 0 mg
[7]
  Activity: 53 mg
[8]
  Activity: 20.5 mm
[9]
  Activity: 55.3 mm
[15]
  Activity: 8 cm
[10]
  Crop_yield: 112.8 g
[16]
  Crop_yield: 165.6 g
[11]
  PDI: 25.7%
[17]
  PDI: 17.5%
[18]
  Activity: 10.2 cm
[19]
  Crop_yield: 17.5 kg
[20]
  PDI: 13.5%
